The text below walks through data of ChEMBL document CHEMBL6114967, “Design and synthesis of novel sulfur-substituted triptolide with the ability to induce autophagy through inhibition of SRSF1 expression” (Eur J Med Chem, 2025).

Activity calls are given as the source filed them. The rule behind the calls is not given here.

In one data set the test system is HepG2. The experiment in a line: Antiproliferative activity against human HepG2 cells assessed as inhibition of cell proliferation incubated for 72 hrs by MTT assay. To be noted: HepG2, 72 h. It counts as functional, cell-based.
Another data set deals with MCF7. The data set can be described thus: Antiproliferative activity against human MCF7 cells assessed as inhibition of cell proliferation incubated for 72 hrs by MTT assay. It counts as functional, cell-based. The following applies: MCF7, 72 h. On the technique in general: Tetrazolium assays rely on reduction of a dye to a coloured formazan, in cell work by metabolically active cells.

The subject of the next data set is HCT-116. The data set can be described thus: Antiproliferative activity against human HCT-116 cells assessed as inhibition of cell proliferation incubated for 72 hrs by MTT assay. It counts as functional, cell-based. To be noted: HCT-116, 72 h.
A further data set concerns U-251. The experiment in a line: Antiproliferative activity against human U-251 cells assessed as inhibition of cell proliferation incubated for 72 hrs by MTT assay. The class given is functional, cell-based. The following applies: U-251, 72 h.
Data set [1] relates to HGC-27. The experiment in a line: Antiproliferative activity against human HGC-27 cells assessed as inhibition of cell proliferation incubated for 72 hrs by MTT assay. It counts as functional, cell-based. To be noted: HGC-27, 72 h.
For data set [2], the system named is AGS. The experiment in a line: Antiproliferative activity against human AGS cells assessed as inhibition of cell proliferation incubated for 72 hrs by MTT assay. The class given is functional, cell-based.
A further data set relates to BGC-823. The data set can be described thus: Antiproliferative activity against human BGC-823 cells assessed as inhibition of cell proliferation incubated for 72 hrs by MTT assay. The class given is functional, cell-based. The following applies: BGC-823, 72 h.
The subject of the next data set is SGC-7901. The experiment in a line: Antiproliferative activity against human SGC-7901 cells assessed as inhibition of cell proliferation incubated for 72 hrs by MTT assay. To be noted: SGC-7901, 72 h. It counts as functional, cell-based.
For the next data set, the system named is A549. The data set can be described thus: Antiproliferative activity against human A549 cells assessed as inhibition of cell proliferation incubated for 72 hrs by MTT assay. The class given is functional, cell-based. The following applies: A549, 72 h.
A further data set relates to B16-F10. The data set can be described thus: Antiproliferative activity against mouse B16-F10 cells assessed as inhibition of cell proliferation incubated for 72 hrs by MTT assay. The class given is functional, cell-based. The following applies: B16-F10, 72 h.
Data set [3] is described as follows: Antiproliferative activity against human LO2 cells assessed as inhibition of cell proliferation incubated for 72 hrs by MTT assay. It counts as toxicity, cell-based, L02.
Data set [4] can be described thus: Selectivity index, ratio of IC50 for antiproliferative activity against human LO2 cells to IC50 for antiproliferative activity against human HGC-27 cells. The following applies: LO2 cells and HGC-27 cells, read-out: Ratio IC50. The class given is toxicity, cell-based.
Data set [5] can be described thus: Selectivity index, ratio of IC50 for antiproliferative activity against human LO2 cells to IC50 for antiproliferative activity against human AGS cells. The class given is cell-based. To be noted: LO2 cells and AGS cells, read-out: Ratio IC50.
Data set [6] has as its system HGC-27. The experiment in a line: Induction of apoptosis in human HGC-27 cells assessed as viable cells at 0.1 uM incubated for 48 hrs by annexin V-FITC and PI staining based flow cytometry analysis (reference value: 91.8%). The class given is functional. The following applies: read-out: Activity. For orientation: A flow cytometer gives signals particle by particle.

Data set [7] concerns HGC-27. The experiment in a line: Induction of apoptosis in human HGC-27 cells assessed as early apoptotic cells at 0.1 uM incubated for 48 hrs by annexin V-FITC and PI staining based flow cytometry analysis (reference value: 3.13%). The class given is functional.
The test system of data set [8] is HGC-27. The data set can be described thus: Induction of apoptosis in human HGC-27 cells assessed as late apoptotic cells at 0.1 uM incubated for 48 hrs by annexin V-FITC and PI staining based flow cytometry analysis (reference value: 5.02%). The class given is functional.
In data set [9] the test system is HGC-27. The data set can be described thus: Induction of apoptosis in human HGC-27 cells assessed as necrotic cells at 0.1 uM incubated for 48 hrs by annexin V-FITC and PI staining based flow cytometry analysis (reference value: 0.062%). The class given is functional.
Data set [10] has as its system AGS. The experiment in a line: Induction of apoptosis in human AGS cells assessed as viable cells at 0.1 uM incubated for 48 hrs by annexin V-FITC and PI staining based flow cytometry analysis (reference value: 92.0%). It counts as functional. To be noted: read-out: Activity.
For data set [11], the system named is AGS. The experiment in a line: Induction of apoptosis in human AGS cells assessed as early apoptotic cells at 0.1 uM incubated for 48 hrs by annexin V-FITC and PI staining based flow cytometry analysis (reference value: 4.44%). The class given is functional.
The test system of data set [12] is AGS. The data set can be described thus: Induction of apoptosis in human AGS cells assessed as late apoptotic cells at 0.1 uM incubated for 48 hrs by annexin V-FITC and PI staining based flow cytometry analysis (reference value: 3.15%). It counts as functional.
The test system of data set [13] is AGS. The experiment in a line: Induction of apoptosis in human AGS cells assessed as necrotic cells at 0.1 uM incubated for 48 hrs by annexin V-FITC and PI staining based flow cytometry analysis (reference value: 0.44%). It counts as functional.
The test system of data set [14] is HGC-27. The experiment in a line: Antitumor activity against human HGC-27 cells xenografted in male BALB/c nude mouse assessed as tumor growth inhibition at 0.5 mg/kg, ip administered every day for 15 days relative to control. The class given is functional. The following applies: HGC-27, 360 h, time 15 day, read-out: TGI. A general note: Xenograft models place foreign cells or tissue in a host animal.

Data set [15] in a line: Toxicity in male ICR mouse assessed as body weight loss at 2 mg/kg, ip measured after 4 days. The class given is organism-based. The following applies: in vivo, 96 h, time 4 day.
Data set [16] is described as follows: Toxicity in male ICR mouse assessed as animal death at 2 mg/kg, ip measured after 4 days. It counts as organism-based. The following applies: in vivo, 96 h, time 4 day.
Data set [17] can be described thus: Acute toxicity in male ICR mouse assessed as abnormal hepatocyte morphology at 2 mg/kg, ip measured after 7 days by H and E staining based light microscopic analysis. It counts as organism-based. The following applies: in vivo, 168 h, time 7 day.
The nature of data set [18]: Acute toxicity in male ICR mouse assessed as enlarged hepatocyte volume at 2 mg/kg, ip measured after 7 days by H and E staining based light microscopic analysis. It counts as organism-based. To be noted: in vivo, 168 h, time 7 day.
Data set [19] in a line: Acute toxicity in male ICR mouse assessed as appearance of empty cytoplasm at 2 mg/kg, ip measured after 7 days by H and E staining based light microscopic analysis. It counts as organism-based. The following applies: in vivo, 168 h, time 7 day.
The nature of data set [20]: Acute toxicity in male ICR mouse assessed as appearance of bright cytoplasm at 2 mg/kg, ip measured after 7 days by H and E staining based light microscopic analysis. It counts as organism-based. To be noted: in vivo, 168 h, time 7 day.
The nature of data set [21]: Acute toxicity in male ICR mouse assessed as appearance of unclear cell boundaries at 2 mg/kg, ip measured after 7 days by H and E staining based light microscopic analysis. The class given is organism-based. The following applies: in vivo, 168 h, time 7 day.
In data set [22] the test system is HGC-27. The data set can be described thus: Induction of autophagy in human HGC-27 cells assessed as increase in LC3 II/LC3 I ratio in tumor tissue at 25 to 100 mg/kg, ip administered daily. The class given is functional, organism-based. To be noted: dose 25-100 mg/kg.

In the case of `CC(C)[C@]12O[C@H]1[C@@H]1O[C@]13[C@]1(O[C@H]1C[C@H]1C4=C(CC[C@@]13C)C(=S)OC4)[C@H]2O`, the IC50 (usually the concentration at which inhibition is half-maximal) is 1870 nM with HepG2; 3040 nM in the data set on MCF7; 1340 nM in the data set with HCT-116; 6320 nM in the data set on U-251; 700 nM with HGC-27 [1]; 2580 nM in the data set with AGS [2]. The IC50 is 3660 nM in the data set on BGC-823, 4830 nM in the data set on SGC-7901, greater than 10000 nM in the data set on A549 and 1460 nM in the data set on B16-F10. Moreover, in [3], the IC50 at 72 h worked out at 6910 nM. Besides, the selectivity ratio in [4] came to 12.2; in [5] it was 2.68.
In the case of `CC(C)[C@]12O[C@H]1[C@@H]1O[C@@]13[C@@]1(C)CCC4=C(COC4=O)[C@@H]1C[C@@H]1O[C@@]13C2=O` [TRIPTONIDE], the IC50 worked out at 50 nM in the data set with HepG2; 50 nM with MCF7; 130 nM in the data set on HCT-116; 20 nM in the data set with U-251; 100 nM with HGC-27 [1]; 50 nM with AGS [2]. Moreover, the IC50 worked out at 90 nM in the data set with BGC-823, 110 nM in the data set on SGC-7901, 460 nM with A549 and 20 nM in the data set on B16-F10.
On to `CC(C)[C@]12O[C@H]1[C@@H]1O[C@]13[C@]1(O[C@H]1C[C@H]1C4=C(CC[C@@]13C)C(=S)O[C@H]4O)[C@H]2O`, for which the IC50 with HepG2, in the data set with MCF7, in the data set with HCT-116, with U-251, in the data set with HGC-27 [1] and in the data set on AGS [2] was greater than 10000 nM in each case. The IC50 with BGC-823, with SGC-7901, in the data set with A549 and in the data set with B16-F10 was greater than 10000 nM in each case.
`CC(C)[C@]12O[C@H]1[C@@H]1O[C@]13[C@]1(O[C@H]1C[C@H]1C4=C(CC[C@@]13C)C(=S)O[C@H]4O)[C@@H]2O`: the IC50 in the data set on HepG2 is greater than 10000 nM; with MCF7 it was greater than 10000 nM; in the data set with HCT-116, 5590 nM; in the data set on U-251, greater than 10000 nM; in the data set on HGC-27 [1] it was greater than 10000 nM; with AGS [2] it was greater than 10000 nM. Besides, the IC50 with BGC-823, in the data set with SGC-7901, in the data set on A549 and with B16-F10 was greater than 10000 nM in each case.
As for `CC(C)[C@]12O[C@H]1[C@@H]1O[C@]13[C@]1(O[C@H]1C[C@H]1C4=C(CC[C@@]13C)C(=O)OC4)[C@@H]2O` [TRIPTOLIDE], the IC50 in the data set on HepG2 amounted to 60 nM; with MCF7, 70 nM; with HCT-116 it was 10 nM; in the data set with U-251, 20 nM; with HGC-27 [1], 20 nM; with AGS [2] it was 40 nM. Moreover, the IC50 in the data set with BGC-823 is 60 nM; in the data set with SGC-7901, 40 nM; in the data set on A549, 40 nM; in the data set with B16-F10, 3 nM. The 50% inhibitory concentration (IC50) at 72 h in [3] is 40 nM. In addition, the figures for the selectivity ratio in [4] and in data set [5] were 1.89 and 1.08, respectively. Besides, the viability at 0.1 µM with HGC-27 [6] was 48.5%; with AGS [10] it was 10%. For the same compound, the Activity came to 34% in the data set on HGC-27 [7]; 17.4% in the data set on HGC-27 [8]; 0.16% with HGC-27 [9]; 50.5% in the data set with AGS [11]; 37.9% in the data set on AGS [12]; 1.65% in the data set with AGS [13]. Moreover, the Activity entry in [15], in data set [16], in [17], in data set [18], in data set [19] and in [20] was “Toxic” in each case. Further, the Activity entry in data set [21] is on record as “Toxic”. Further, the inhibition in vivo at 0.5 mg/kg with HGC-27 [14] is 97.2%. In the data set on HGC-27 [22], the outcome was inactive.
As for `CC(C)[C@]12O[C@H]1[C@@H]1O[C@@]13[C@@]1(C)CCC4=C([C@H](O)OC4=S)[C@@H]1C[C@@H]1O[C@@]13C2=O`, the IC50 was greater than 10000 nM in the data set with HepG2; greater than 10000 nM in the data set on MCF7; 8530 nM in the data set with HCT-116; greater than 10000 nM in the data set on U-251; greater than 10000 nM in the data set with HGC-27 [1]; greater than 10000 nM in the data set on AGS [2]. Also, the IC50 in the data set with BGC-823, in the data set on SGC-7901, in the data set with A549 and in the data set with B16-F10 was greater than 10000 nM in each case.
For the compound `CC(C)[C@]12O[C@H]1[C@@H]1O[C@@]13[C@@]1(C)CCC4=C(COC4=S)[C@@H]1C[C@@H]1O[C@@]13C2=O`, the IC50 in the data set with HepG2 is 630 nM; in the data set on MCF7, 1790 nM; in the data set with HCT-116, 520 nM; with U-251 it was 2430 nM; with HGC-27 [1] it was 620 nM; in the data set with AGS [2], 1030 nM. Besides, the IC50 is 1330 nM with BGC-823, 1880 nM with SGC-7901, greater than 10000 nM in the data set with A549 and 1030 nM with B16-F10. In data set [3], the IC50 at 72 h amounted to 3350 nM. Besides, the selectivity ratio in data set [4] amounted to 5.43; in data set [5] it was 3.26.
